The results in this text go back to publication PMC10117910, “Recombinant production, purification, and biochemical characterization of a novel L-lactate dehydrogenase from Bacillus cereus NRC1 and inhibition study of mangiferin” (Frontiers in Bioengineering and Biotechnology, 2023).

Assay [1] concerns the target T1, L-lactate dehydrogenase (Bc-LDH) (Bacillus cereus, UniProt Q81EP4).
T1 construct: gene ldh1; full-length, 314 amino acids (GenBank BDI00612.1), recombinant from pET28-Bc-LDH in E. coli BL21 (DE3)
Description: LDH activity assay (NADH absorbance at […] nm) of purified enzyme; Lineweaver-Burk and Dixon plots. The class given is biochemical.

Assay [2] deals with Bacillus cereus NRC1 L-lactate dehydrogenase (Bacillus cereus NRC1) (UniProt P0A392). The assay is described as follows: SEC; gel filtration on a calibrated Sephacryl S-300 column (142 cm × 1.75 cm i.d.), eluted with 0.02 M phosphate buffer pH 7.5; native mass compared with the subunit mass by SDS-PAGE (35 kDa). (In general: SEC sorts molecules by how far they enter the pores of the column.)

T1 sequence (Q81EP4 whole entry): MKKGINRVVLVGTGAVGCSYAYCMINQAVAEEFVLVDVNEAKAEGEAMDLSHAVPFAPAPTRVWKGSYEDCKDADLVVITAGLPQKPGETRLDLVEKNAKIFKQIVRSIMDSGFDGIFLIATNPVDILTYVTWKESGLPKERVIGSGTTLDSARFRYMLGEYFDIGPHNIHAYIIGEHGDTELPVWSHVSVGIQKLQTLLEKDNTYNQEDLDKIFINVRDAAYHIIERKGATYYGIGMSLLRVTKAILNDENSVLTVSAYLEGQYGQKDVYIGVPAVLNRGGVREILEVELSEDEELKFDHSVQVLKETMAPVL

As usually defined, the Ki is a dissociation constant, usually derived from enzyme kinetics or from competition with a known ligand. A low value points to a stronger hold on the target. `O=c1c2cc(O)c(O)cc2oc2cc(O)c([C@@H]3O[C@H](CO)[C@@H](O)[C@H](O)[C@H]3O)c(O)c12` [mangiferin, 2-β-D-glucopyranosyl-1,3,6,7-tetrahydroxy-9H-xanthen-9-one] showed a Ki in assay [1] of 75 µM.
In general, stoichiometry N refers to the number of molecules, sites or subunits per partner or assembly. Molecule “Bacillus cereus NRC1 L-lactate dehydrogenase (from UniProt P0A392 1-366) (enzyme)” had a stoichiometry N in assay [2] of 4.
